Data published in patent publication US20040235855A1, “Phospholipase C inhibitors for use in treating inflammatory disorders” (priority 2003, published 2004).
pIC50: −log10 of the molar value.

Experiments:
[1] = test system: PMA-induced ear edema; assay: Acute PMA-induced ear edema mouse model; assay type: in vivo
Text: The acute PMA-induced ear edema mouse model was used to test compounds of the present […] (as described in Carlson R P, O'Neill-Davis L, Chang J. and Lewis A J, Modulation of Mouse Ear Edema by Cyclooxygenase and Lipoxygenase Inhibitors and Other Pharmacologic Agents, Agents and Actions, 1985, 17:197-204).

[2] = biological target: T1, human PLC-β2 (Homo sapiens, UniProt Q00722); assay: PLC assay using FlashPlates (96-well, immobilized [3H]PIP2 substrate); assay type: biochemical; settings: purified recombinant human PLC-β2 or cytosolic human PLC-β2; hydrolysis of [3H]PIP2
T1 construct: made in house; host or cells: Sf9 cells (Spodoptera frugiperda), recombinant baculovirus
Text: The hydrolysis of phosphatidylinositol-4,5-bisphosphate (PIP2) by a specific phospholipase C-β2 (PLC-β2) produces two intracellular messengers, diacylglycerol (DAG) and inositol 1,4,5-trisphosphate (IP3), which mediate the activation of protein kinase C and intracellular Ca^2+ release. A conventional organic solvent extraction method is widely used for PLC assays to isolate IP3 from the substrate PIP2. The conventional PLC-β2 assay, however is terminated by addition of acidified organic solvents and subsequent extraction and phase separation. […] Accordingly, a preferred method to test the compounds of the present invention, was developed utilizing a 96-well plate assay for PLC-β2 using immobilized radiolabeled substrate to quantitatively measure the reduction in the substrate level without a need for organic solvent extraction. The automated PLC-β2 assay described herein provides a convenient method for quantitative measurement of phospholipase C activities in a high throughput fashion. Ninety-six well Phospholipid FlashPlates were coated with 0.2 mL of 50 mM Tris/HCl (pH 7.4), 0.01% Ac-BSA and 50,000 cpm of […] (phosphatidylinositol-4,5-bisphosphate) at 4° C. for 72 h. The wells were aspirated and washed twice with PBS. The reactions were conducted directly in the wells in PLC reaction buffer containing 50 mM Tris/HCl (pH 7.2), 2.75 mM EDTA (pH 7.3), 80 mM KCl, 10 mM LiCl, 0.04% DOC and 2 mM CaCl2 in the absence or presence of the purified recombinant human PLC-β2 (prepared as described hereafter) or cytosolic human PLC-β2 from […]. Reduction of radioactivity was monitored by a Packard TopCount instrument (Packard Instrument Company, Conn., USA). […] The cells were grown in Grace's media supplemented with 10% (v/v) fetal bovine serum, 3.3 g/l yeastolate, 3.3 g/l lactalbumin hydrosylate, glutamine (6.4 mM final), 50 μg/ml gentamicin, and 50 μg/ml kanamycin. Suspension of Sf9 cells (1.0×10^6 cells/ml) were infected with 5 pfu/cell of recombinant baculovirus encoding PLC-β2 and incubated at 27° C. for 72 h. The cells were collected by centrifugation (500×g, 7 min, 4° C.) and disrupted by hypotonic lysis buffer containing 20 mM Tris/HCl, pH 7.4, 5 mM MgCl2, 2 mM EGTA, 200 μM PMSF, 200 μM benzamidine and 1 μM pepstatin A. The lysate was sonicated on ice and the nuclei and unbroken cells removed by centrifigation (500×g, 5 min, 4C.). The supernatant was recovered and clarified by centrifugation (34,000 rpm, 60 min, 4C.). The supernatant was used as a crude cytosolic fraction (Paterson, A., Boyer, J. L., Watts, V. J., Morris, A. J., Price, […]. (1995) Concentration of enzyme-dependent activation of PLC β1 and PLC β2 by Gα11 and βγ subunits. Cellular Signalling 7, 709-720). Crude cytosol prepared from Sf9 cells expressing PLC-β2 was purified initially by chromatography on a 10 ml column of Q-Sepharose FF, equilibrated in buffer A (25 mM HEPES, pH 7.2,2 mM DTT, 2 mM EDTA, 2 mM EGTA, 200 μM PMSF, 200 μM benzamidine, 1 μM pepstatin A containing 10 mM NaCl). The column was washed with 20 ml of equilibration buffer and eluted with a 200-ml gradient of 110-410 mM NaCl in buffer A. The fractions containing PLC activity were pooled and diluted with buffer A. The diluted enzyme was applied to a 4 ml column of heparin-SepharoseCL-6B equilibrated in buffer A and the column washed with 70 ml of buffer A. The column was eluted with 80 ml of gradient of 0-1.0 M NaCl in buffer A, the column eluate collected in 3 ml fractions. […]

T1 sequence (Q00722 whole entry): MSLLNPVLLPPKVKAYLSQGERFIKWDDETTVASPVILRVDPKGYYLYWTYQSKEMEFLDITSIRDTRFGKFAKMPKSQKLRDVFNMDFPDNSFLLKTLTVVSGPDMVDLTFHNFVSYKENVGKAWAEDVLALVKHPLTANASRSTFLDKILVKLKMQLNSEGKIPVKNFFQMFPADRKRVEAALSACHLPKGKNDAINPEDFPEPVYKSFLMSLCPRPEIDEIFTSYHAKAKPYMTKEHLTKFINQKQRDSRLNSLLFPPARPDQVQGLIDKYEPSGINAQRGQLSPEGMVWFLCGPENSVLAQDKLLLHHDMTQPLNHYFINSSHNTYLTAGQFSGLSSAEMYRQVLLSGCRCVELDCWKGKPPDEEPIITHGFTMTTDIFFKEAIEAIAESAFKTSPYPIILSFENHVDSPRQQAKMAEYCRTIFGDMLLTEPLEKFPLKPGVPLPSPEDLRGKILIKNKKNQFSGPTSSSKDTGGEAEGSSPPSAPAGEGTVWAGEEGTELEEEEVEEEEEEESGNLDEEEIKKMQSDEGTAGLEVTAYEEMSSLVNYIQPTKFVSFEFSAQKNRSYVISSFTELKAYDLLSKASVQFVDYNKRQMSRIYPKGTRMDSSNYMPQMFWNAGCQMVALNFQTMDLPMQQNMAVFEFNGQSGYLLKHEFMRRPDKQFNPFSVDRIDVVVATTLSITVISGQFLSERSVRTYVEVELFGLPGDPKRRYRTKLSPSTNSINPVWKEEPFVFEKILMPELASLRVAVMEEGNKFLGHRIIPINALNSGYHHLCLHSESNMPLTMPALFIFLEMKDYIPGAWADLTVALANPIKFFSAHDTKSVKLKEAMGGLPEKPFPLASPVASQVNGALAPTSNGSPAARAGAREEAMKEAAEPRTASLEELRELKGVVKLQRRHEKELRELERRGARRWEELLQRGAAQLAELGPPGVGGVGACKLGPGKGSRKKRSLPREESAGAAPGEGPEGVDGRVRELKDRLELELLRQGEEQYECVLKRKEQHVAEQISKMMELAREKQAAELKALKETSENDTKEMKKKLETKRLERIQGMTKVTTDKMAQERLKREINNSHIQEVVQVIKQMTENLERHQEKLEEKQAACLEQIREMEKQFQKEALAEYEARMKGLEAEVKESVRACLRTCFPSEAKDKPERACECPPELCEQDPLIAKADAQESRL

## NC(=O)c1ccc(N2CCN(C3c4ccccc4-c4ccccc43)CC2)c(NC(=O)Nc2ccccc2)c1 [Cpd 9, 4-[4-(9H-fluoren-9-yl)-1-piperazinyl]-3-[[(phenylamino)carbonyl]amino]-benzamide]
[1]; 5 mpk i.v.
  % Inhibition: 44%
[1]; 30 mpk i.p.
  % Inhibition: 52%
[1]; 30 mpk p.o.
  % Inhibition: 44%
[2]
  pIC50: 5.72

## NC(=O)c1ccc(N2CCN(C(c3ccc(F)cc3)c3ccc(F)cc3)CC2)c(NC(=S)NCc2ccccc2)c1 [Cpd 21, 4-[4-[bis(4-fluorophenyl)methyl]-1-piperazinyl]-3-[[[(phenylmethyl)amino]thioxomethyl]amino]-benzamide]
[1]; 5 mpk i.v.
  % Inhibition: 56%
[1]; 30 mpk i.p.
  % Inhibition: 83%
[1]; 30 mpk p.o.
  % Inhibition: 31%
[2]
  pIC50: 5.64

## O=C(Nc1ccccc1)Nc1cc(C(=O)N2CCNCC2)ccc1N1CCN(C(c2ccccc2)c2ccccc2)CC1 [Cpd 40, N-[2-[4-(diphenylmethyl)-1-piperazinyl]-5-(1-piperazinylcarbonyl)phenyl]-N′-phenylurea]
[1]; 5 mpk i.v.
  % Inhibition: 44%
[1]; 30 mpk i.p.
  % Inhibition: 81%
[1]; 30 mpk p.o.
  % Inhibition: 9%
[2]
  pIC50: 5.80

## O=C(/C=C/c1ccccc1)NC(=O)Nc1cc(C(=O)N2CCNCC2)ccc1N1CCN(C(c2ccccc2)c2ccccc2)CC1 [Cpd 61, N-[2-[4-(diphenylmethyl)-1-piperazinyl]-5-(1-piperazinylcarbonyl)phenyl]-N′-[(2E)-1-oxo-3-phenyl-2-propenyl]-urea]
[2]
  pIC50: 5.37

## CC(C)(C)NC(=O)Nc1cc(C(=O)N2CCNCC2)ccc1N1CCN(C(c2ccccc2)c2ccccc2)CC1 [Cpd 62, N-(1,1-dimethylethyl)-N′-[2-[4-(diphenylmethyl)-1-piperazinyl]-5-(1-piperazinylcarbonyl)phenyl]-urea]
[2]
  pIC50: < 4.60

## O=C(Nc1cc(C(=O)N2CCNCC2)ccc1N1CCN(C(c2ccccc2)c2ccccc2)CC1)NC1CCCC1 [Cpd 63, N-cyclopentyl-N′-[2-[4-(diphenylmethyl)-1-piperazinyl]-5-(1-piperazinylcarbonyl)phenyl]-urea]
[2]
  pIC50: 4.86

## C[C@H](NC(=O)Nc1cc(C(=O)N2CCNCC2)ccc1N1CCN(C(c2ccccc2)c2ccccc2)CC1)c1ccccc1 [Cpd 64, N-[2-[4-(diphenylmethyl)-1-piperazinyl]-5-(1-piperazinylcarbonyl)phenyl]-N′-[(1S)-1-phenylethyl]-urea]
[2]
  pIC50: < 4.60

## O=C(c1ccc(N2CCN(C(c3ccccc3)c3ccccc3)CC2)c(NC(=S)NCc2ccccc2)c1)N1CCNCC1 [Cpd 65, N-[2-[4-(diphenylmethyl)-1-piperazinyl]-5-(1-piperazinylcarbonyl)phenyl]-N′-(phenylmethyl)thiourea]
[2]
  pIC50: 5.21

## CC(C)NC(=O)Nc1cc(C(=O)N2CCNCC2)ccc1N1CCN(C(c2ccccc2)c2ccccc2)CC1 [Cpd 66, N-[2-[4-(diphenylmethyl)-1-piperazinyl]-5-(1-piperazinylcarbonyl)phenyl]-N′-(1-methylethyl)urea]
[2]
  pIC50: < 4.60

## O=C(NC(=S)Nc1cc(C(=O)N2CCNCC2)ccc1N1CCN(C(c2ccccc2)c2ccccc2)CC1)c1ccc(Cl)cc1 [Cpd 67, N-(4-chlorobenzoyl)-N′-[2-[4-(diphenylmethyl)-1-piperazinyl]-5-(1-piperazinylcarbonyl)phenyl]-thiourea]
[2]
  pIC50: 5.47

## NC(=O)c1ccc(N2CCN(C(c3ccncc3)c3ccc(F)cc3)CC2)c(NC(=O)Nc2ccccc2)c1 (stereo not drawn) [Cpd 77, 4-[4-[(4-fluorophenyl)-4-pyridinylmethyl]-1-piperazinyl]-3-[[(phenylamino)carbonyl]amino]-benzamide]
[2]
  pIC50: ~5.00

## NC(=O)c1ccc(N2CCN(C(c3ccncc3)c3ccc(F)cc3)CC2)c(NC(=O)NC2CCCCC2)c1 (stereo not drawn) [Cpd 78]
[2]
  pIC50: < 5.00

## NC(=O)c1ccc(N2CCCN(C(c3ccncc3)c3ccc(F)cc3)CC2)c(NC(=O)Nc2ccccc2)c1 (stereo not drawn) [Cpd 79, 4-[4-[(4-fluorophenyl)-4-pyridinylmethyl]hexahydro-1H-1,4-diazepin-1-yl]-3-[[(phenylamino)carbonyl]amino]-benzamide]
[2]
  pIC50: < 5.00

## NC(=O)c1ccc(N2CCCN(C(c3ccncc3)c3ccc(F)cc3)CC2)c(NC(=O)NC2CCCCC2)c1 (stereo not drawn) [Cpd 80, 3-[[(cyclohexylamino)carbonyl]amino]-4-[4-[(4-fluorophenyl)-4-pyridinylmethyl]hexahydro-1H-1,4-diazepin-1-yl]-benzamide]
[2]
  pIC50: < 5.00

## NC(=O)c1ccc(N2CCCN(C(c3ccc(F)cc3)c3ccc(F)cc3)CC2)c(NC(=O)Nc2ccccc2)c1 [Cpd 81, 4-[4-[bis(4-fluorophenyl)methyl]hexahydro-1H-1,4-diazepin-1-yl]-3-[[(phenylamino)carbonyl]amino]-benzamide]
[2]
  pIC50: ~5.00

## NC(=O)c1ccc(N2CCCN(C(c3ccc(F)cc3)c3ccc(F)cc3)CC2)c(NC(=O)NC2CCCCC2)c1 [Cpd 82, 4-[4-[bis(4-fluorophenyl)methyl]hexahydro-1H-1,4-diazepin-1-yl]-3-[[(cyclohexylamino)carbonyl]amino]-benzamide]
[2]
  pIC50: ~5.00

## O=C(Nc1ccccc1)Nc1ccc(C(=O)N2CCNCC2)cc1N1CCCN(C(c2ccc(F)cc2)c2ccc(F)cc2)CC1 [Cpd 89, N-[2-[4-[bis(4-fluorophenyl)methyl]hexahydro-1H-1,4-diazepin-1-yl]-4-(1-piperazinylcarbonyl)phenyl]-N′-phenyl-urea]
[2]
  pIC50: 6.09

## O=C(Nc1ccccc1)Nc1ccc(C(=O)N2CCNCC2)cc1N1CCN(C(c2ccc(F)cc2)c2ccc(F)cc2)CC1 [Cpd 90, N-[2-[4-[bis(4-fluorophenyl)methyl]-1-piperazinyl]-4-(1-piperazinylcarbonyl)phenyl]-N′-phenyl-urea]
[2]
  pIC50: 6.01

## O=C(Nc1ccccc1)Nc1ccc(C(=O)N2CCNCC2)cc1N1CCN(C(c2ccccc2)c2ccccc2)CC1 [Cpd 91, N-[2-[4-(diphenylmethyl)-1-piperazinyl]-4-(1-piperazinylcarbonyl)phenyl]-N′-phenyl-urea]
[2]
  pIC50: 5.89

## O=C(Nc1ccc(C(=O)N2CCNCC2)cc1N1CCN(C(c2ccccc2)c2ccccc2)CC1)NC1CCCCC1 [Cpd 92, N-cyclohexyl-N′-[2-[4-(diphenylmethyl)-1-piperazinyl]-4-(1-piperazinylcarbonyl)phenyl]-urea]
[2]
  pIC50: 5.80

## NC(=O)c1ccc(NC(=O)Nc2ccccc2)c(N2CCN(C(c3ccccc3)c3ccccc3)CC2)c1 [Cpd 93, 3-[4-(diphenylmethyl)-1-piperazinyl]-4-[[(phenylamino)carbonyl]amino]-benzamide]
[2]
  pIC50: 5.74
